Earlier results, collected in US10952984B2, “All-trans retinoic acid injectant and application” (HIGHFIELD BIOPHARMACEUTICAL CORPORATION, priority 2016, dated 2021).
≈ marks a conversion by molar mass, not a printed value.

Tests used:
[1] = not given; remark: listed apart in the source

CC1=C(/C=C/C(C)=C/C=C/C(C)=C/C(=O)O)C(C)(C)CCC1 [all-trans retinoic acid]
water solubility: 4.77 µg/mL (≈ 15.9 µM)
solubility of the all-trans retinoic acid in the prior art (prior art): 10 µg/mL
bioavailability ([1]; oral dosage forms, clinical studies): ≤ 30%
plasma half-life ([1]; prior art): short
